Results taken from publication PMC9114170, “Investigation of the Role of Hydrophobic Amino Acids on the Structure-Activity Relationship in the Antimicrobial Venom Peptide Ponericin L1” (The Journal of membrane biology, 2021).
Ends that are not written are not given here.

Experiments:
[1] = Acrylamide quenching of Trp fluorescence in absence and presence of lipid vesicles; type: physicochemical; settings: 2 μM peptide in PBS pH 7.0, λex 295 nm, λem 340, average of three replicates ± SD; for Acrylamide quenching Ksv, PCPG: 3:1 DOPC:DOPG vesicles; for Acrylamide quenching Ksv, PCPG / Acrylamide quenching Ksv, PEPG / Acrylamide quenching Ksv, PC / Acrylamide quenching Ksv, PC/Chol: 250 μM lipid; for Acrylamide quenching Ksv, PEPG: 3:1 POPE:DOPG vesicles; for Acrylamide quenching Ksv, PC: DOPC vesicles; for Acrylamide quenching Ksv, PC/Chol: DOPC:Cholesterol vesicles; for Acrylamide quenching Ksv, PBS: no lipid vesicles
Protocol: To form small unilamellar vesicles (SUVs) sonication or ethanol dilution methods were implemented ([Caputo & London, 2019]). In all cases, lipid vesicle preparation was the same. Depending on the lipid composition, appropriate volumes of lipids in chloroform were mixed in a glass tube and then allowed to dry under N2 gas for 15 minutes. The lipid films were then placed in a vacuum desiccator and allowed to dry further under a vacuum for 1 hour. For vesicles formed through ethanol dilution methods, 10 μL of pure ethanol was added to the film, and then vortex until the dissipation of the film. While continuing to vortex, the appropriate amount of PBS was added. For vesicles formed using the method of sonication, PBS was added directly to the tube while being vortexed to create multilamellar vesicles (MLVs). The MLV suspension was covered with parafilm and then placed in a high-powered bath sonicator (Avanti Lipids) and subjected to sonication for 20 minutes to create SUVs.
Acrylamide quenching was monitored by titration of samples with 10 μL aliquots of 4M acrylamide titrated into peptide samples prepared as described above. These samples contained either or [0.25] mM total lipid. After each addition of acrylamide, Trp fluorescence intensity was measured using λex = 295 nm and λem = 340. Corrections to the emission intensity were made for background subtraction, dilutions, and inner filter effects in the excitation path as described previously. The same method to calculate Ksv was used as above.
In order to gain more insight into the bilayer interactions, fluorescence quenching approaches were utilized. The peptides were exposed to the aqueous quencher acrylamide in solution or when bound to vesicles. […] Thus, peptide Trp exposure to the aqueous milieu can be gauged by the extent of quenching by acrylamide. Stern-Volmer quenching plots were created to analyze the data and Ksv (slopes of a linear fit to the data) are shown in Figure 4 and Table 2. […] In the case of L1L and L1I, there was a significant reduction in quenching between the solution (free) state of the peptide and when bound to anionic vesicles, but a much smaller reduction if any when interacting with zwitterionic vesicles. This is consistent with a more deeply buried Trp in anionic bilayers.

[2] = test system: Gram-positive and Gram-negative strains; experiment: Antimicrobial activity over the MIC panel; type: cell-based; settings: highest concentration tested 15μM
Protocol: Six different strains of bacteria were streaked on LB-Miller agar plates from a frozen glycerol stock derived from the original samples shipped from CGSC (Coli Genetic Stock Center, Yale University) or ATCC (American Type Culture Collection) (Escherichia coli D31 CGSC 5165 ([Burman, Nordstrom & Boman, 1968]), Staphylococcus aureus ATCC 35556. Pseudomonas aeruginosa PA-01 ATCC 47085, Acinetobacter baumannii ATCC 19606). For each of the strains a liquid overnight culture was prepared using a single colony into fresh LB broth and placed in a shaking incubator for ~ 18 hours at 37 C at 225 rpm. After the incubation period, a 1:200 dilution was made in fresh LB broth and then used for experimentation. Minimal Inhibitory Concentration (MIC) determinations were performed using mid-log phase bacteria diluted to 5 x 10^5 CFU/mL. Next, 90 μL of this diluted culture was then pipetted into a sterile 96-well plate that contains serially diluted aliquots of the peptide variants to consist of a total volume of 100 μL. This plate was then incubated for 18 hours at 37 C. Bacterial growth was determined by taking an OD600 measurement using a Spectramax M5 multimode plate reader post incubation. Minimal Bactericidal Concentration (MBC) was performed by taking 1 μL of the culture from the MIC plate and then pipetting it on to a fresh LB agar plate. After plating this culture, the plate was then incubated overnight at 37 C. MBC was determined by the growth or the lack of growth from each well on the agar plate.
The ability of L1 and the hydrophobic variants to act as antimicrobials was investigated using the Minimal Inhibitory Concentration (MIC) and Minimal Bactericidal Concentration (MBC) assays as previously described ([Wiegand, Hilpert & Hancock, 2008]). The MIC is determined as the lowest concentration of peptide required to inhibit bacterial growth in solution, while the MBC is the lowest concentration required to act in a bactericidal mechanism (as opposed to bacteriostatic) and is determined by plating MIC cultures on antimicrobial-free media. Peptides were screened against E. coli, S. aureus, A. baumannii, P. aeruginosa, B. subtilis, and K. pneumoniae.

[3] = Trichloroethanol (TCE) quenching of Trp fluorescence, solution aggregation assay; type: physicochemical; settings: 2 μM peptide in PBS pH 7.0, titration with 10M TCE, λex 280 nm, λem 340, average of three replicates
Protocol: Trichloroethanol (TCE) quenching was monitored by titration of samples with 10 μL aliquots of 10M TCE (Alfa Aesar, Haverhill, Massachusetts) into peptide samples prepared as described above. After each addition of TCE, Trp fluorescence intensity was measured using λex = 280 nm and λem = 340. Corrections to the emission intensity were made for background subtraction and dilutions. The slope of the linear best fit equation to the data (eqn 2) was used as the Stern-Volmer quenching constant (Ksv) (2) F0/F=1+Ksv[Q] where F0 is the fluorescence intensity in the absence of quencher, and F is the fluorescence intensity in the presence of a given concentration of quencher [Q].
The environment of the L1 Trp residue was further probed using fluorescence quenching by trichloroethanol (TCE) which selectively exerts quenching on Trp residues which are shielded from the aqueous milieu, such as at the interior of a peptide aggregate. The results are shown in Figure 2B, with the Ksv values for the quenching shown in Supplemental Table 1. […] However, considering the reduced overall hydrophobicity of this peptide and thus higher aqueous solubility, decreased TCE quenching is not surprising.

[4] = test system: E. coli D31 outer membrane; experiment: E. coli outer membrane permeabilization (nitrocefin / β-lactamase); type: cell-based, Escherichia coli; settings: E. coli D31, nitrocefin hydrolysis, absorbance 486 nm, up to 90 minutes; peptide serially diluted from 15 μM; average of three replicates
Protocol: A single colony of E.coli D31 was taken from an LB agar plate and inoculated into fresh LB broth with 100 μg/mL ampicillin (LB-Amp), then place in a shaking incubator at 37 C (225 rpm) for ~ 18 hours. After the incubation period 100 μL was taken from the culture and diluted with 25 mL of fresh LB-Amp. The dilution was further incubated in the same conditions until an OD600 of 0.2 to 0.4 was obtained. Once the specified OD600 was reached the culture was then centrifuged at 2500 rpm for 15 minutes in a tabletop clinical centrifuge. The supernatant was discarded and then an equal amount of PBS (100 mM NaH2PO4, 200 mM NaCl, pH7) was used to resuspend the pellet.
Experimental samples were prepared in a 96-well plate in the order as follows: 10 μL of the six peptide variants that were serially diluted starting a concentration of 15 μM with the exception of the last row (used as a negative control 10 μL of 0.01% acetic acid). 80 μL of the resuspended bacteria culture, and 10 μL of 50 μg/mL nitrocefin in PBS. The absorbance was recorded at 486 nm in 5-minute intervals for a total run time of 90 minutes immediately following the addition of nitrocefin. The antimicrobial agent polymyxin B was used as a positive control. The values presented are the average of three replicates.
As the mechanism of action of the L1 venom peptide is likely a membrane disruptive mechanism, the effect of the hydrophobic substitutions on membrane permeabilization was investigated using E.coli and ovine red blood cells (RBCs). The permeabilization of the E. coli outer membrane was assayed using an enzyme-substrate pair in which the enzyme (β-lactamase) is located in the periplasmic space while the substrate (the chromogenic nitrocefin) is added to the exterior of cells. […] Similarly, the permeabilization of the E. coli inner membrane was assessed using a cytoplasmic enzyme, β-galactosidase, and a chromogenic substrate, ONPG. […]

[5] = test system: Sheep red blood cells (RBCs); settings: earlier work of the group; ref Senetra, Necelis & Caputo, 2020b; cited from earlier work
Source text: The ponerine ant, Neoponera goeldii (previously classified as Pachycondyla goeldii), produces a mixture of venom peptides known as ponericins ([Orivel et al., 2001]). These peptides have been subdivided into three sub-classes based on the amino acid sequences (L, W, and G) and contain a total of 15 independent peptide sequences. […] Among these peptides, the L1 sequence was the most poorly characterized.

[6] = Red edge excitation shift (REES) solution aggregation assay; type: physicochemical; settings: 2 μM peptide in PBS pH 7.0, λex 280 to 307 nm, emission 310 to 410 nm, Trp fluorescence, average of three replicates
Source text: All fluorescence spectroscopy experiments were preformed using a JY-Horiba Fluoromax4 instrument. Excitation and emission slit widths were kept consistent at 2.5 nm. Semi-micro quartz cuvettes were utilized for each experiment. The following formula was used to calculate a spectral barycenter for each experiment: (1) B=∑λ*i/∑i where B is the barycenter, λ is the wavelength, and i is the intensity at the specified wavelength. An entire emission spectrum from 300-400 was used the carry out the calculation of barycenter.
Red edge excitation shift (REES) experiments utilized excitation at 6 different wavelengths (λex = 280, 290, 295, 300, 305, and 307 nm) and the same emission range of 310 to 410 nm. Samples were similarly prepared as above. A blank only containing PBS buffer was used as background to correct the spectra after each addition.
Aggregation of peptides was assessed utilizing the intrinsic fluorescence properties of the Trp residue in the L1 sequence. […] Differences in the side chain motion/dynamics of the Trp residue and the local environment around the Trp can be observed by monitoring the red-edge excitation shifts (REES). […]

Sequence	Acrylamide quenching Ksv, PCPG [1]	Acrylamide quenching Ksv, PEPG [1]	Acrylamide quenching Ksv, PC [1]	Acrylamide quenching Ksv, PC/Chol [1]	Acrylamide quenching Ksv, PBS [1]	Antimicrobial activity (summary of MIC results) [2]	TCE quenching of Trp fluorescence (extent) [3]	Outer membrane permeabilization [4]	Hemolytic activity [5]	REES total shift [6]
AAKEAWTKMKGAGKAAAGKAKGAA [L1A]	10.9 ± 0.26 M⁻¹	3.59 ± 0.58 M⁻¹	8.51 ± 0.46 M⁻¹	10.79 ± 0.27 M⁻¹	8.19 ± 0.90 M⁻¹	no antimicrobial activity	markedly lower than the others	–	–	–
IIKEIWTKMKGAGKAIIGKIKGII [L1I]	8.72 ± 2.09 M⁻¹	3.39 ± 2.25 M⁻¹	4.9 ± 1.51 M⁻¹	12.65 ± 0.63 M⁻¹	10.5 ± 0.67 M⁻¹	broad spectrum activity	–	no membrane disruption above background	–	–
LLKELWTKMKGAGKAVLGKIKGLL [L1, ponericin L1]	–	–	–	–	–	–	–	–	very low level of hemolytic activity	–
VVKEVWTKMKGAGKAVVGKVKGVV [L1V]	16.86 ± 6.47 M⁻¹	5.64 ± 0.38 M⁻¹	4.18 ± 0.15 M⁻¹	12.19 ± 1.54 M⁻¹	12.14 ± 1.59 M⁻¹	no antimicrobial activity	showed the most quenching	–	–	~ 10 nm
